Data reported in patent publication EP0555116B1, “Compositions based on antiseptics and their applications” (HUTCHINSON, priority 1992, dated 1993).

Legend:
S. aureus ATCC 6538 [1] = assay: Disinfection time test (Essai 2, Tables D-F), reaction at 22°, subcultures 72 h at 37°C; assay type: cell-based, Staphylococcus aureus
Protocol: (§1) Un autre essai a été réalisé à partir des solutions suivantes : • 100 ml d'une solution à 0,1 % de digluconate de chlorhexidine (pH 6) et • 100 ml d'une solution à 0,1 % de Bardac 22®.
(§2) Les tests ont été réalisés conformément au protocole décrit dans le Chapitre I/2.1 et 2.2 de Richtlinien für die Prüfung und Bewertung chemischer Desinfektionsverfahren der DGHM, Stand 1.1., 1981).
(§3) Les tests dont les résultats sont illustrés aux Tableaux D, E et F ont été réalisés à une température de réaction de 22° avec une incubation des sous-cultures 72 heures à 37°C avec comme substances inactivantes : Tween® 80 3 % + saponine 3 % + cystéine 0,1 % + histidine 0,1 %; ces Tableaux illustrent respectivement l'activité bactéricide et fongicide d'une solution aqueuse à 0,1 % de digluconate de chlorhexidine, d'une solution aqueuse à 0,1 % de Bardac 22® et d'un mélange à part égale des deux composés et montrent l'action des antiseptiques précités, en fonction du temps de contact, et font apparaître la même synergie d'action de l'association que ci-dessus, dans la mesure où l'association des deux composés permet de diminuer significativement leur concentration, pour l'obtention d'un même effet. TABLEAU D

S. aureus ATCC 6538 [2] = assay: Growth inhibition test (DGHM, Essai 2, Tables A-C), 72 h at 37°C; non/A/B/C = without or with inactivating substances A, B, C; assay type: cell-based, Staphylococcus aureus
Protocol: as §1
L'activité de ces solutions, seules ou en combinaison a été plus particulièrement testée vis-à-vis de Staphylococcus aureus ATCC 6538, Escherichia coli ATCC 11229 et Candida albicans ATCC 10231.
as §2
Les Tableaux A, B et C illustrent respectivement l'activité bactéricide et fongicide d'une solution aqueuse à 0,1 % de digluconate de chlorhexidine, d'une solution aqueuse à 0,1 % de Bardac 22® et d'un mélange à part égale des deux composés. Les protocoles dont ces Tableaux illustrent les résultats comprennent une incubation de 72 heures à 37°C et l'utilisation, comme témoins, des substances inactivantes suivantes : A : Tween® 80 3 % + lécithine 0,3 % + cystéine 0,1 %; B : Tween® 80 3 % + saponine 3 % + cystéine 0,1 % + histidine 0,1 %; C : Tween® 80 3 % + lécithine 0,3 % + histidine 0,1 % + thiosulfate de sodium 0,5 %.
Dans ces Tableaux, le signe "+" indique une croissance et le signe "-" l'absence de croissance.

[3] = system: Candida albicans ATCC 1031; assay: Disinfection time test (Essai 2, Tables D-F), reaction at 22°, subcultures 72 h at 37°C; assay type: cell-based
Protocol: as §1, §2, §3

[H]/N=C(\N/C(=N/[H])NCCCCCCNC(=N)NC(=N)Nc1ccc(Cl)cc1)Nc1ccc(Cl)cc1 [Chlorhexidine, digluconate de chlorhexidine, reference compound]
croissance (S. aureus ATCC 6538 [1]; Conc. 0,1 % (vol/vol), 1 min): +
croissance (S. aureus ATCC 6538 [1]; Conc. 0,1 % (vol/vol), 3 min): +
croissance (S. aureus ATCC 6538 [1]; Conc. 0,1 % (vol/vol), 5 min): +
croissance (S. aureus ATCC 6538 [1]; Conc. 0,1 % (vol/vol), 15 min): +
croissance (S. aureus ATCC 6538 [1]; Conc. 0,1 % (vol/vol), 30 min): +
croissance (S. aureus ATCC 6538 [1]; Conc. 0,1 % (vol/vol), 60 min): +
croissance (S. aureus ATCC 6538 [1]; Conc. 0,05 % (vol/vol), 1 min): +
croissance (S. aureus ATCC 6538 [1]; Conc. 0,5 % (vol/vol), 1 min): +
croissance (S. aureus ATCC 6538 [1]; Conc. 0,05 % (vol/vol), 3 min): +
croissance (S. aureus ATCC 6538 [1]; Conc. 0,5 % (vol/vol), 3 min): +
croissance (S. aureus ATCC 6538 [1]; Conc. 0,05 % (vol/vol), 5 min): +
croissance (S. aureus ATCC 6538 [1]; Conc. 0,5 % (vol/vol), 5 min): +
croissance (S. aureus ATCC 6538 [1]; Conc. 0,05 % (vol/vol), 15 min): +
croissance (S. aureus ATCC 6538 [1]; Conc. 0,5 % (vol/vol), 15 min): +
croissance (S. aureus ATCC 6538 [1]; Conc. 0,05 % (vol/vol), 30 min): +
croissance (S. aureus ATCC 6538 [1]; Conc. 0,5 % (vol/vol), 30 min): +
croissance (S. aureus ATCC 6538 [1]; Conc. 0,05 % (vol/vol), 60 min): +
croissance (S. aureus ATCC 6538 [1]; Conc. 0,5 % (vol/vol), 60 min): +
croissance (S. aureus ATCC 6538 [1]; Conc. 1 % (vol/vol), 1 min): +
croissance (S. aureus ATCC 6538 [1]; Conc. 1 % (vol/vol), 3 min): +
croissance (S. aureus ATCC 6538 [1]; Conc. 1 % (vol/vol), 5 min): +
croissance (S. aureus ATCC 6538 [1]; Conc. 1 % (vol/vol), 15 min): +
croissance (S. aureus ATCC 6538 [1]; Conc. 1 % (vol/vol), 30 min): +
croissance (S. aureus ATCC 6538 [1]; Conc. 1 % (vol/vol), 60 min): +
croissance (S. aureus ATCC 6538 [1]; Conc. 5 % (vol/vol), 1 min): +
croissance (S. aureus ATCC 6538 [1]; Conc. 5 % (vol/vol), 3 min): +
croissance (S. aureus ATCC 6538 [1]; Conc. 5 % (vol/vol), 5 min): +
croissance (S. aureus ATCC 6538 [1]; Conc. 5 % (vol/vol), 15 min): +
croissance (S. aureus ATCC 6538 [1]; Conc. 5 % (vol/vol), 30 min): +
croissance (S. aureus ATCC 6538 [1]; Conc. 5 % (vol/vol), 60 min): +
croissance (S. aureus ATCC 6538 [1]; Conc. 10 % (vol/vol), 1 min): +
croissance (S. aureus ATCC 6538 [1]; Conc. 10 % (vol/vol), 3 min): +
croissance (S. aureus ATCC 6538 [1]; Conc. 10 % (vol/vol), 5 min): +
croissance (S. aureus ATCC 6538 [1]; Conc. 10 % (vol/vol), 15 min): +
croissance (S. aureus ATCC 6538 [1]; Conc. 10 % (vol/vol), 30 min): +
croissance (S. aureus ATCC 6538 [1]; Conc. 10 % (vol/vol), 60 min): -
croissance (S. aureus ATCC 6538 [1]; Conc. 25 % (vol/vol), 1 min): +
croissance (S. aureus ATCC 6538 [1]; Conc. 25 % (vol/vol), 3 min): +
croissance (S. aureus ATCC 6538 [1]; Conc. 25 % (vol/vol), 5 min): +
croissance (S. aureus ATCC 6538 [1]; Conc. 25 % (vol/vol), 15 min): +
croissance (S. aureus ATCC 6538 [1]; Conc. 25 % (vol/vol), 30 min): -
croissance (S. aureus ATCC 6538 [1]; Conc. 25 % (vol/vol), 60 min): -
croissance (S. aureus ATCC 6538 [2]; Conc. 0,1 % (vol/vol), A): +
croissance (S. aureus ATCC 6538 [2]; Conc. 0,1 % (vol/vol), B): +
croissance (S. aureus ATCC 6538 [2]; Conc. 0,1 % (vol/vol), C): +
croissance (S. aureus ATCC 6538 [2]; Conc. 0,1 % (vol/vol), non): +
croissance (S. aureus ATCC 6538 [2]; Conc. 0,05 % (vol/vol), A): +
croissance (S. aureus ATCC 6538 [2]; Conc. 0,5 % (vol/vol), A): +
croissance (S. aureus ATCC 6538 [2]; Conc. 0,05 % (vol/vol), B): +
croissance (S. aureus ATCC 6538 [2]; Conc. 0,5 % (vol/vol), B): +
croissance (S. aureus ATCC 6538 [2]; Conc. 0,05 % (vol/vol), C): +
croissance (S. aureus ATCC 6538 [2]; Conc. 0,5 % (vol/vol), C): +
croissance (S. aureus ATCC 6538 [2]; Conc. 0,05 % (vol/vol), non): +
croissance (S. aureus ATCC 6538 [2]; Conc. 0,5 % (vol/vol), non): -
croissance (S. aureus ATCC 6538 [2]; Conc. 1,0 % (vol/vol), A): +
croissance (S. aureus ATCC 6538 [2]; Conc. 1,0 % (vol/vol), B): +
croissance (S. aureus ATCC 6538 [2]; Conc. 1,0 % (vol/vol), C): +
croissance (S. aureus ATCC 6538 [2]; Conc. 1,0 % (vol/vol), non): -
croissance (S. aureus ATCC 6538 [2]; Conc. 0,00625 % (vol/vol), A): +
croissance (S. aureus ATCC 6538 [2]; Conc. 0,00625 % (vol/vol), B): +
croissance (S. aureus ATCC 6538 [2]; Conc. 0,00625 % (vol/vol), C): +
croissance (S. aureus ATCC 6538 [2]; Conc. 0,00625 % (vol/vol), non): +
croissance (S. aureus ATCC 6538 [2]; Conc. 0,0125 % (vol/vol), A): +
croissance (S. aureus ATCC 6538 [2]; Conc. 0,0125 % (vol/vol), B): +
croissance (S. aureus ATCC 6538 [2]; Conc. 0,0125 % (vol/vol), C): +
croissance (S. aureus ATCC 6538 [2]; Conc. 0,0125 % (vol/vol), non): +
croissance (S. aureus ATCC 6538 [2]; Conc. 0,025 % (vol/vol), A): +
croissance (S. aureus ATCC 6538 [2]; Conc. 0,025 % (vol/vol), B): +
croissance (S. aureus ATCC 6538 [2]; Conc. 0,025 % (vol/vol), C): +
croissance (S. aureus ATCC 6538 [2]; Conc. 0,025 % (vol/vol), non): +
concentration en substance active inhibant la croissance (S. aureus ATCC 6538 [2]; antiseptique seul): 0,0005%
croissance ([3]; Conc. 0,1 % (vol/vol), 1 min): +
croissance ([3]; Conc. 0,1 % (vol/vol), 3 min): +
croissance ([3]; Conc. 0,1 % (vol/vol), 5 min): +
croissance ([3]; Conc. 0,1 % (vol/vol), 15 min): +
croissance ([3]; Conc. 0,1 % (vol/vol), 30 min): +
croissance ([3]; Conc. 0,1 % (vol/vol), 60 min): +
croissance ([3]; Conc. 0,05 % (vol/vol), 1 min): +
croissance ([3]; Conc. 0,5 % (vol/vol), 1 min): +
croissance ([3]; Conc. 0,05 % (vol/vol), 3 min): +
croissance ([3]; Conc. 0,5 % (vol/vol), 3 min): +
croissance ([3]; Conc. 0,05 % (vol/vol), 5 min): +
croissance ([3]; Conc. 0,5 % (vol/vol), 5 min): +
croissance ([3]; Conc. 0,05 % (vol/vol), 15 min): +
croissance ([3]; Conc. 0,5 % (vol/vol), 15 min): +
croissance ([3]; Conc. 0,05 % (vol/vol), 30 min): +
croissance ([3]; Conc. 0,5 % (vol/vol), 30 min): +
croissance ([3]; Conc. 0,05 % (vol/vol), 60 min): +
croissance ([3]; Conc. 0,5 % (vol/vol), 60 min): +
croissance ([3]; Conc. 1 % (vol/vol), 1 min): +
croissance ([3]; Conc. 1 % (vol/vol), 3 min): +
croissance ([3]; Conc. 1 % (vol/vol), 5 min): +
croissance ([3]; Conc. 1 % (vol/vol), 15 min): +
croissance ([3]; Conc. 1 % (vol/vol), 30 min): +
croissance ([3]; Conc. 1 % (vol/vol), 60 min): -
croissance ([3]; Conc. 5 % (vol/vol), 1 min): +
croissance ([3]; Conc. 5 % (vol/vol), 3 min): +
croissance ([3]; Conc. 5 % (vol/vol), 5 min): +
croissance ([3]; Conc. 5 % (vol/vol), 15 min): +
croissance ([3]; Conc. 5 % (vol/vol), 30 min): -
croissance ([3]; Conc. 5 % (vol/vol), 60 min): -
croissance ([3]; Conc. 10 % (vol/vol), 1 min): +
croissance ([3]; Conc. 10 % (vol/vol), 3 min): +
croissance ([3]; Conc. 10 % (vol/vol), 5 min): +
croissance ([3]; Conc. 10 % (vol/vol), 15 min): +
croissance ([3]; Conc. 10 % (vol/vol), 30 min): -
croissance ([3]; Conc. 10 % (vol/vol), 60 min): -
croissance ([3]; Conc. 25 % (vol/vol), 1 min): +
croissance ([3]; Conc. 25 % (vol/vol), 3 min): +
croissance ([3]; Conc. 25 % (vol/vol), 5 min): +
croissance ([3]; Conc. 25 % (vol/vol), 15 min): -
croissance ([3]; Conc. 25 % (vol/vol), 30 min): -
croissance ([3]; Conc. 25 % (vol/vol), 60 min): -
